Reference: ChEMBL document CHEMBL6120974, “Hydrazide-Based Class I Selective HDAC Inhibitors Completely Reverse Chemoresistance Synergistically in Platinum-Resistant Solid Cancer Cells” (J Med Chem, 2024)
pIC50: −log10 of the molar value. Calls of active or inactive are those of the source. The calls are words filed in the database; no cut-off is given here.

Tests used:
Cal27CisR [1] = assay: Induction of apoptosis in human Cal27CisR cells assessed as increase in BIM expression at 0.316 uM incubated for 48 hrs by Immunoblotting analysis; type: functional, cell-based
Cal27CisR [2] = assay: Induction of apoptosis in cisplatin resistant human Cal27CisR cells assessed as decrease in survivin expression at 0.316 uM incubated for 24 to 72 hrs by Immunoblotting analysis; type: functional, cell-based; conditions: time 24-72 hrs
A2780 [3] = assay: cells; conditions: Homo sapiens, A2780, 72 h
Cal27CisR [4] = assay: Induction of apoptosis in cisplatin resistant human Cal27CisR cells assessed as decrease in p21 expression at 0.316 uM in presence of cisplatin at 16.5 uM preincubated with compound for 24 to 72 hrs prior to addition of cisplatin and measured after 24 hrs by Immunoblotting analysis; type: functional, cell-based; conditions: time 48-96 hrs
Cal27CisR [5] = assay: Induction of apoptosis in cisplatin resistant human Cal27CisR cells assessed as decrease in Bcl-2 expression at 0.316 uM in presence of cisplatin at 16.5 uM preincubated with compound for 24 to 72 hrs prior to addition of cisplatin and measured after 24 hrs by Immunoblotting analysis; type: functional, cell-based; conditions: time 48-96 hrs
Cal27CisR [6] = assay: Induction of cell cycle arrest in cisplatin resistant human Cal27CisR cells assessed as increase in p21 expression at 0.316 uM incubated for 48 hrs by Western blotting analysis; type: functional, cell-based
A2780cisR [7] = assay: Induction of DNA damage in cisplatin resistant human A2780 cisR cells assessed as increase in gammaH2AX formation at 2 uM in presence of cisplatin at 16 uM pretreated with compound for 48 hrs prior to addition of cisplatin and measured after 24 hrs by Hoechst 33342 staining based Immunofluorescence analysis; type: functional, cell-based; conditions: time 72.0 hrs
Cal27CisR [8] = assay: Induction of apoptosis in cisplatin resistant human Cal27CisR cells assessed as decrease in BIM expression at 0.316 uM incubated for 24 to 72 hrs by Immunoblotting analysis; type: functional, cell-based; conditions: time 24-72 hrs
[9] = molecular target: T1, Protein deacetylase HDAC6 (Homo sapiens) (UniProt Q9UBN7); assay: (§1) Inhibition of N-terminal GST-tagged full length recombinant human HDAC6 (1 to 1215 end residues) expressed in sf9 cells at > 10 uM using ZMAL (Z-Lys(Ac)-AMC as fluorogenic substrate preincubated with compound for 60 mins followed by substrate addition and measured after 90 mins by fluorescence based microplate reader analysis relative to control; conditions: time 150.0 min
T1 sequence (whole entry): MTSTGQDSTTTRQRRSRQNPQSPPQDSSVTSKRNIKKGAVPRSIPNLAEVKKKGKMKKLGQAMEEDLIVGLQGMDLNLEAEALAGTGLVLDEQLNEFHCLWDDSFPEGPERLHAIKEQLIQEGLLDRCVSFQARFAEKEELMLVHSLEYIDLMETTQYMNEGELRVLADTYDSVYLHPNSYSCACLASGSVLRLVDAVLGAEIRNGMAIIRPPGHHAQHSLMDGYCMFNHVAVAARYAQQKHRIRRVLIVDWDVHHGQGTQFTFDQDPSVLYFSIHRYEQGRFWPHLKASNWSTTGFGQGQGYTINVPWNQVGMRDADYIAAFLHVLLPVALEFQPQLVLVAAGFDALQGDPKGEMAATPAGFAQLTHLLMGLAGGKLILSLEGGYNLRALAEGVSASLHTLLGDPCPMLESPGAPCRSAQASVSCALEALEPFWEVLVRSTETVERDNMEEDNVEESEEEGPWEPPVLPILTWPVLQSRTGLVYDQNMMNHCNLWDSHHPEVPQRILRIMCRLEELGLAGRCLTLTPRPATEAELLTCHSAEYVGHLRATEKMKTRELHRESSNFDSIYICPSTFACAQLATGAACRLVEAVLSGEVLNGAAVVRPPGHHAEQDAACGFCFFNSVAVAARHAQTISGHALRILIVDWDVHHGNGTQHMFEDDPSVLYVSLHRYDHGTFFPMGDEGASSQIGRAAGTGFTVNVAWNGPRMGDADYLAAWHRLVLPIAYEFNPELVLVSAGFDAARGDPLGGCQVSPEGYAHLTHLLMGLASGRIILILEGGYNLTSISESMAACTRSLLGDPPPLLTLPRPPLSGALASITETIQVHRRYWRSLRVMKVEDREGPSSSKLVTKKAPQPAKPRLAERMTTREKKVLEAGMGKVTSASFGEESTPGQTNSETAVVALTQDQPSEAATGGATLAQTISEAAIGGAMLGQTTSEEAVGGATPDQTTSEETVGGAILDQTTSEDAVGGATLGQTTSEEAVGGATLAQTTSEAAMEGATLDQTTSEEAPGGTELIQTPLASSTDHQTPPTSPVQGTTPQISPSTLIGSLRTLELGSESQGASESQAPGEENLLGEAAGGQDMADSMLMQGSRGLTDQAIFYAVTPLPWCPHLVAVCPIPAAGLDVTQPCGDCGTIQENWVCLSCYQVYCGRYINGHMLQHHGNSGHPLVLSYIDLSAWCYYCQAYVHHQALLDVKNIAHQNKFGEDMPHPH

A2780 [10] = assay: Induction of apoptosis in human A2780 cells assessed as increase in BIM expression at 0.75 uM in presence of cisplatin at 3.5 uM preincubated with compound for 48 hrs prior to addition of cisplatin and measured after 24 hrs by Immunoblotting analysis; type: functional, cell-based; conditions: time 72.0 hrs
CAL-27 = assay: Downregulation of survivin expression in human CAL-27 cells at 0.316 uM incubated for 48 hrs by Immunoblotting analysis; type: functional, cell-based
A2780 [11] = assay: Induction of apoptosis in human A2780 cells assessed as increase in caspase 3/7 activation at 0.75 uM in presence of cisplatin preincubated with compound for 48 hrs co-treated with cisplatin and measured after 24 hrs by capase3/7 green dye based analysis; type: functional, cell-based; conditions: time 72.0 hrs
cells = conditions: Homo sapiens, CAL-27
Cal27CisR [12] = assay: Induction of apoptosis in cisplatin resistant human Cal27CisR cells assessed as decrease in survivin expression at 0.316 uM in presence of cisplatin at 16.5 uM preincubated with compound for 24 to 72 hrs prior to addition of cisplatin and measured after 24 hrs by Immunoblotting analysis; type: functional, cell-based; conditions: time 48-96 hrs
Cal27CisR [13] = assay: Induction of apoptosis in cisplatin resistant human Cal27CisR cells assessed as decrease in BIM expression at 0.316 uM in presence of cisplatin at 16.5 uM preincubated with compound for 24 to 72 hrs prior to addition of cisplatin and measured after 24 hrs by Immunoblotting analysis; type: functional, cell-based; conditions: time 48-96 hrs
HL-60 = assay: cells; conditions: Homo sapiens, HL-60, 72 h
Cal27CisR [14] = assay: Induction of apoptosis in cisplatin resistant human Cal27CisR cells assessed as decrease in BAX expression at 0.316 uM in presence of cisplatin at 16.5 uM preincubated with compound for 24 to 72 hrs prior to addition of cisplatin and measured after 24 hrs by Immunoblotting analysis; type: functional, cell-based; conditions: time 48-96 hrs
A2780 [15] = assay: Effect of Bcl-2 protein level in human A2780 cells at 0.75 uM incubated for 48 hrs by Immunoblotting analysis; type: functional, cell-based
A2780cisR [16] = assay: Effect of Bcl-2 protein level in cisplatin resistant human A2780 cisR cells at 2 uM incubated for 48 hrs by Immunoblotting analysis; type: functional, cell-based
[17] = molecular target: T1, Protein deacetylase HDAC6 (Homo sapiens); assay: as §1, with “3.33” for “10”

pIC50 (A2780 [3]) | inhibition [9] | pIC50 (cells) | pIC50 (HL-60) | inhibition [17] | SMILES | Activity (Cal27CisR [1]) | Activity (Cal27CisR [2]) | Activity (Cal27CisR [4]) | Activity (Cal27CisR [5]) | Activity (Cal27CisR [6]) | Activity (A2780cisR [7]) | Activity (Cal27CisR [8]) | Activity (A2780 [10]) | Activity (CAL-27) | Activity (A2780 [11]) | Activity (Cal27CisR [12]) | Activity (Cal27CisR [13]) | Activity (Cal27CisR [14]) | Activity (A2780 [15]) | Activity (A2780cisR [16])
5.95 | < 25% | 5.99 | 6.37 | – | CCCNNC(=O)c1ccc(CN(CC(=O)NCc2ccccc2)C(=O)c2ccc(N(C)C)cc2)cc1 | Active | inactive | Active | Active | Active | inactive | inactive | inactive | Active | Active | Active | Active | Active | – | –
6.05 | – | 5.99 | 6.32 | < 25% | CCCCNNC(=O)c1ccc(CN(CC(=O)NCc2ccccc2)C(=O)c2ccc(N(C)C)cc2)cc1 | Active | – | – | – | Active | inactive | – | inactive | Active | Active | – | – | – | inactive | inactive
